Experimental data from patent publication US20120172384A1, “HETEROCYCLYLAMINOPYRIMIDINES AS KINASE INHIBITORS” (priority 2009, published 2012).

Biological target: T1, JAK3 (Homo sapiens, UniProt P52333)
T1 construct: endogenous in cells
T1 sequence (P52333 1-1124): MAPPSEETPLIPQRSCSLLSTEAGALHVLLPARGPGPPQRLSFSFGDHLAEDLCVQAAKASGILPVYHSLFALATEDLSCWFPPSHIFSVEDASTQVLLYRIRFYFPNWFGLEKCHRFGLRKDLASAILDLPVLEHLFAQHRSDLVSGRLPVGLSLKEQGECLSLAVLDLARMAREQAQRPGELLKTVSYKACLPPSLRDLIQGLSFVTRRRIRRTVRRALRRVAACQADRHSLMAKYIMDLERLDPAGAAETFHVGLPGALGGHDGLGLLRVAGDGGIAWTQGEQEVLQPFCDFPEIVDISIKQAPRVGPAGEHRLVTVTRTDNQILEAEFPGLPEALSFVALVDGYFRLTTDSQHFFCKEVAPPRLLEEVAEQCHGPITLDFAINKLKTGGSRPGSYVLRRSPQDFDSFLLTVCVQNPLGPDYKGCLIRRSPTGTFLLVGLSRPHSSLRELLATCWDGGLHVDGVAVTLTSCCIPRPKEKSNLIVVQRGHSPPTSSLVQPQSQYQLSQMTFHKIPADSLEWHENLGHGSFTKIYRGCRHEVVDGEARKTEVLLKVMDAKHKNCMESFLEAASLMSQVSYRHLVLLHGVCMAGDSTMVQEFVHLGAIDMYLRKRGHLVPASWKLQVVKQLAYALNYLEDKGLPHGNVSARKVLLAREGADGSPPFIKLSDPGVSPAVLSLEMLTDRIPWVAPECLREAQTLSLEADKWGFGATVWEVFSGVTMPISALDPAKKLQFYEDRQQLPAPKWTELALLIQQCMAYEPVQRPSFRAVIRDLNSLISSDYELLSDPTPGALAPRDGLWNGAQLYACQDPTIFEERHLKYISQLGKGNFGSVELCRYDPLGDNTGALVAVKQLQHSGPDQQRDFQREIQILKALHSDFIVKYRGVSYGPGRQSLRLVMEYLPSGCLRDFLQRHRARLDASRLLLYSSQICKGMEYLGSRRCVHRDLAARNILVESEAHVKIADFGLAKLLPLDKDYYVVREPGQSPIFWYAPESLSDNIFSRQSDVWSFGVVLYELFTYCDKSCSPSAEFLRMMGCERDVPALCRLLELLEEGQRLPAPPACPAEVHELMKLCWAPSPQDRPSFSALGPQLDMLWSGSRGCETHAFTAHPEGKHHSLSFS
Test: JAK3 kinobeads assay
Type: binding
Conditions: cell lysate, dot blot with JAK3 specific antibody
Procedure: The compounds of the present invention as described in the previous examples were tested in the ZAP-70 kinobeads assay as described (EP-A 1862802 and WO-A 2007/137867). Briefly, test compounds (at various concentrations) and the affinity matrix with the immobilized aminopyrido-pyrimidine ligand 24 are added to cell lysate aliquots and allowed to bind to the proteins in the lysate sample. After the incubation time the beads with captured proteins are separated from the lysate. Bound proteins are then eluted and the presence ZAP-70 is detected and quantified using a specific antibody in a dot blot procedure and the Odyssey infrared detection system.
Compounds were tested by the procedure described in Example 102 but using a JAK3 specific antibody (Cell Signaling Technology, Inc., Danvers, US, catalogue number 3775) instead of a ZAP70 antibody.

Row | IC50 [nM] | SMILES
1 | ≤ 100 | CCn1nc(Nc2ncc(Cl)c(Nc3cccc(F)c3NS(C)(=O)=O)n2)cc1C [Example 91, N-(2-((5-chloro-2-((1-ethyl-5-methyl-1H-pyrazol-3-yl)amino)pyrimidin-4-yl)amino)-6-fluorophenyl)methanesulfonamide]
2 | ≤ 100 | CC(C)n1ccc(Nc2ncc(Br)c(Nc3ccccc3NS(C)(=O)=O)n2)n1 [Example 49, N-(2-((5-bromo-2-((1-isopropyl-1H-pyrazol-3-yl)amino)pyrimidin-4-yl)amino)phenyl)methanesulfonamide]
3 | ≤ 100 | CNC(=O)c1cc(Nc2ncc(Cl)c(Nc3ccccc3NS(C)(=O)=O)n2)nn1C [Example 97, 3-((5-chloro-4-((2-(methylsulfonamido)phenyl)amino)pyrimidin-2-yl)amino)-N,1-dimethyl-1H-pyrazole-5-carboxamide]
4 | ≤ 100 | Cn1cc(Nc2ncc(F)c(Nc3cccc(F)c3NS(C)(=O)=O)n2)cn1 [Example 99, N-(2-fluoro-6-((5-fluoro-2-((1-methyl-1H-pyrazol-4-yl)amino)pyrimidin-4-yl)amino)phenyl)methanesulfonamide]
5 | 100 to 1000 | Cc1nn(CC(F)F)cc1Nc1ncc(F)c(Nc2ccccc2NS(C)(=O)=O)n1 [Example 72, N-(2-((2-((1-(2,2-difluoroethyl)-3-methyl-1H-pyrazol-4-yl)amino)-5-fluoropyrimidin-4-yl)amino)phenyl)methanesulfonamide]
6 | 100 to 1000 | CCS(=O)(=O)Nc1ccccc1Nc1nc(Nc2cnn(C)c2)ncc1F [Example 62, N-(2-((5-fluoro-2-((1-methyl-1H-pyrazol-4-yl)amino)pyrimidin-4-yl)amino)phenyl)ethanesulfonamide]
7 | 100 to 1000 | CCCn1ccc(Nc2ncc(Cl)c(Nc3cccc(F)c3NS(C)(=O)=O)n2)n1 [Example 79, N-(2-((5-chloro-2-((1-propyl-1H-pyrazol-3-yl)amino)pyrimidin-4-yl)amino)-6-fluorophenyl)methanesulfonamide]
8 | ≤ 100 | Cc1cc(Nc2ncc(Br)c(Nc3ccccc3NS(C)(=O)=O)n2)nn1C [Example 51, N-(2-((5-bromo-2-((1,5-dimethyl-1H-pyrazol-3-yl)amino)pyrimidin-4-yl)amino)phenyl)methanesulfonamide]
9 | 1000 to 10000 | CCS(=O)(=O)Nc1ccccc1Nc1nc(Nc2cc(C)n(C)n2)ncc1F [Example 61, N-(2-((2-((1,5-dimethyl-1H-pyrazol-3-yl)amino)-5-fluoropyrimidin-4-yl)amino)phenyl)ethanesulfonamide]
10 | ≤ 100 | CS(=O)(=O)Nc1ccccc1Nc1nc(Nc2ccon2)ncc1Br [Example 50, N-(2-((5-bromo-2-(isoxazol-3-ylamino)pyrimidin-4-yl)amino)phenyl)methanesulfonamide]
11 | ≤ 100 | Cn1cc(Nc2ncc(Cl)c(Nc3ccccc3NS(=O)(=O)C3CC3)n2)cn1 [Example 58, N-(2-((5-chloro-2-((1-methyl-1H-pyrazol-4-yl)amino)pyrimidin-4-yl)amino)phenyl)cyclopropanesulfonamide]
12 | ≤ 100 | Cn1ccc(Nc2ncc(Cl)c(Nc3cccc(F)c3NS(C)(=O)=O)n2)n1 [Example 70, N-(2-((5-chloro-2-((1-methyl-1H-pyrazol-3-yl)amino)pyrimidin-4-yl)amino)-6-fluorophenyl)methanesulfonamide]
13 | 1000 to 10000 | Cc1cc(Nc2ncc(F)c(Nc3ccccc3NS(C)(=O)=O)n2)nn1CC(F)(F)F [Example 75, N-(2-((5-fluoro-2-((5-methyl-1-(2,2,2-trifluoroethyl)-1H-pyrazol-3-yl)amino)pyrimidin-4-yl)amino)phenyl)methanesulfonamide]
14 | 100 to 1000 | COc1ccc(Nc2nc(Nc3ccn(C(C)C)n3)ncc2F)c(NS(C)(=O)=O)c1 [Example 48, N-(2-((5-fluoro-2-((1-isopropyl-1H-pyrazol-3-yl)amino)pyrimidin-4-yl)amino)-5-methoxyphenyl)methanesulfonamide]
15 | ≤ 100 | COc1nn(CC(F)F)cc1Nc1ncc(Cl)c(Nc2ccccc2NS(C)(=O)=O)n1 [Example 80, N-(2-((5-chloro-2-((1-(2,2-difluoroethyl)-3-methoxy-1H-pyrazol-4-yl)amino)pyrimidin-4-yl)amino)phenyl)methanesulfonamide]
16 | ≤ 100 | CS(=O)(=O)Nc1ccccc1Nc1nc(Nc2cnn(CCCC#N)c2)ncc1F [Example 66, N-(2-((2-((1-(3-cyanopropyl)-1H-pyrazol-4-yl)amino)-5-fluoropyrimidin-4-yl)amino)phenyl)methanesulfonamide]
17 | ≤ 100 | Cn1cc(Nc2ncc(Cl)c(Nc3cccc(F)c3NS(C)(=O)=O)n2)cn1 [Example 89, N-(2-((5-chloro-2-((1-methyl-1H-pyrazol-4-yl)amino)pyrimidin-4-yl)amino)-6-fluorophenyl)methanesulfonamide]
18 | 100 to 1000 | COc1ccc(Nc2nc(Nc3cc(C)n(C)n3)ncc2F)c(NS(C)(=O)=O)c1 [Example 47, N-(2-((2-((1,5-dimethyl-1H-pyrazol-3-yl)amino)-5-fluoropyrimidin-4-yl)amino)-5-methoxyphenyl)methanesulfonamide]
19 | ≤ 100 | CS(=O)(=O)Nc1ccccc1Nc1nc(Nc2cnn(CCCC#N)c2)ncc1Cl [Example 65, N-(2-((5-chloro-2-((1-(3-cyanopropyl)-1H-pyrazol-4-yl)amino)pyrimidin-4-yl)amino)phenyl)methanesulfonamide]
20 | ≤ 100 | CS(=O)(=O)Nc1ccccc1Nc1nc(Nc2cnn(CC(F)F)c2)ncc1F [Example 85, N-(2-((2-((1-(2,2-difluoroethyl)-1H-pyrazol-4-yl)amino)-5-fluoropyrimidin-4-yl)amino)phenyl)methanesulfonamide]
21 | ≤ 100 | Cc1nn(CC(F)F)cc1Nc1ncc(Cl)c(Nc2ccccc2NS(C)(=O)=O)n1 [Example 81, N-(2-((5-chloro-2-((1-(2,2-difluoroethyl)-3-methyl-1H-pyrazol-4-yl)amino)pyrimidin-4-yl)amino)phenyl)methanesulfonamide]
22 | 100 to 1000 | Cc1cc(Nc2ncc(Cl)c(Nc3ccccc3NS(C)(=O)=O)n2)nn1CC(F)(F)F [Example 83, N-(2-((5-chloro-2-((5-methyl-1-(2,2,2-trifluoroethyl)-1H-pyrazol-3-yl)amino)pyrimidin-4-yl)amino)phenyl)methanesulfonamide]
23 | ≤ 100 | Cn1nc(Nc2ncc(Cl)c(Nc3ccccc3NS(C)(=O)=O)n2)cc1C(=O)NCCO [Example 101, 3-((5-chloro-4-((2-(methylsulfonamido)phenyl)amino)pyrimidin-2-yl)amino)-N-(2-hydroxyethyl)-1-methyl-1H-pyrazole-5-carboxamide]
24 | 100 to 1000 | COc1ccc(Nc2nc(Nc3cc(C4CC4)nn3C)ncc2Cl)c(NS(C)(=O)=O)c1 [Example 9, N-(2-(5-chloro-2-(3-cyclopropyl-1-methyl-1H-pyrazol-5-ylamino)pyrimidin-4-ylamino)-5-methoxyphenyl)methanesulfonamide]
25 | 1000 to 10000 | COc1ccc(Nc2nc(Nc3cc(C(C)(C)C)nn3C)ncc2Cl)c(NS(C)(=O)=O)c1 [Example 10, N-(2-(2-(3-tert-butyl-1-methyl-1H-pyrazol-5-ylamino)-5-chloropyrimidin-4-ylamino)-5-methoxyphenyl)methanesulfonamide]
26 | ≤ 100 | COCCn1cc(Nc2ncc(Cl)c(Nc3cccc(F)c3NS(C)(=O)=O)n2)cn1 [Example 93, N-(2-((5-chloro-2-((1-(2-methoxyethyl)-1H-pyrazol-4-yl)amino)pyrimidin-4-yl)amino)-6-fluorophenyl)methanesulfonamide]
27 | 100 to 1000 | COc1nn(CC(F)F)cc1Nc1ncc(F)c(Nc2ccccc2NS(C)(=O)=O)n1 [Example 73, N-(2-((2-((1-(2,2-difluoroethyl)-3-methoxy-1H-pyrazol-4-yl)amino)-5-fluoropyrimidin-4-yl)amino)phenyl)methanesulfonamide]
28 | ≤ 100 | CCNC(=O)c1cc(Nc2ncc(Cl)c(Nc3ccccc3NS(C)(=O)=O)n2)nn1C [Example 100, 3-((5-chloro-4-((2-(methylsulfonamido)phenyl)amino)pyrimidin-2-yl)amino)-N-ethyl-1-methyl-1H-pyrazole-5-carboxamide]
